Earlier results as cited in US20230346899A1 (priority 2022, published 2023).

Test system: SARS-CoV-2
Conditions: moderate COVID-19 patients

Row | Substance | Median time to elimination of SARS-CoV-2 confirmed by RT-PCR, days (IQR) | Median time to improvement in clinical status by 2 points on the WHO-OSCI, days (IQR) | Median time to normalization of CRP concentration (≤10 mg/L) in patient's blood, days (IQR) | Median time to normalization of D-dimer concentration (<253 ng/mL) in patient's blood, days (IQR) | Median time to normalization of body temperature (<37° C.), days (IQR)
1 | aprotinin | 7.5 (6-9) days | 11.0 (6-11) days | 6.0 (6-6) days | 4.5 (3-6) days | 3.0 (2-3) days
2 | favipiravir [FVP + SOC)] | 4.5 (4-9) days | 14.0 (11.5-16) days | 14.0 (5.5-14) days |  | 2.0 (1-3) days
